The record followed here is patent publication US9938236B2, “Antiviral agents against HBV infection” (DREXEL UNIVERSITY, priority 2012, dated 2018).

Assay [1] concerns HBV. Briefly: Antiviral activity in HepDES19 cells (core-associated HBV DNA, Southern blot hybridization). Conditions: Hepatitis B virus, 144 h, Table 33, scaffold (XIV) drawing 940, 6 days. It is filed as cell-based.
Method: Two days after seeding, the cells were mock-treated or treated with a serial dilution of compounds of the disclosure, ranging from 10 μM to 0.018 μM, for 6 days in the absence of tetracycline. Upon the completion of treatment, cells were lysed by adding into each well of the 12-well plates 0.5 ml of lysis buffer containing 10 mM Tris-HCl (pH 8.0), 1 mM EDTA, 1% NP40 and 2% sucrose and incubating at 37° C. for 10 minutes. Cell debris and nuclei were removed by centrifugation and the supernatant was mixed with 130 μl of 35% polyethylene glycol (PEG) 8000 containing 1.5 M NaCl. After 1 hour incubation in ice, viral nucleocapsids were pelleted by centrifugation at 6,000×g for 5 min at 4° C., followed by 1 hour digestion at 37° C. in 400 μl of digestion buffer containing 0.5 mg/ml pronase (Calbiochem), 0.5% SDS, 150 mM NaCl, 25 mM Tris-HCl (pH 8.0) and 10 mM EDTA. The digestion mixture was extracted twice with phenol and DNA was precipitated with ethanol, dissolved in TE buffer (10 mM Tris-HC 1, pH 8.0; 0.1 mM EDTA). One half of the DNA sample from each well was resolved by electrophoresis into a 1.5% agarose gel. The gel was then subjected to denaturation in a solution containing 0.5 M NaOH and 1.5 M NaCl, followed by neutralization in a buffer containing 1 M Tris-HCl (pH7.4) and 1.5 M NaCl. DNA was then blotted onto Hybond-XL membrane (GE Health care) in 20×SSC buffer.
Assay [2] concerns HBV. Put plainly: Antiviral activity in AML12HBV10 cells (HBV DNA dot-blot hybridization). It is filed as cell-based. Conditions: Hepatitis B virus, Table 33, scaffold (XIV) drawing 940, 48 hours. As for the experimental part:
The antiviral efficacy of the compounds of the disclosure, as presented in Tables 21 through 39 were determined in AML12HBV10 cells. AML12HBV10 is an immortalized murine hepatocyte (AML12)-derived stable cell line that supports robust HBV replication in a tetracycline inducible manner (Xu et al.). The cells were seeded into 96 well plates at a density of 2×10^4 cells per well and cultured in DMEM/F12 media with 10% fetal bovine serum in the absence of tetracycline to allow pgRNA transcription and HBV DNA replication. One day after seeding, cells were left untreated or treated with a serial dilution of testing compounds, ranging from 50 μM to 0.39 μM, for 48 hours. Cells were then lysed by adding into each well of 100 μl lysis buffer containing 10 mM Tris-HCl (pH 7.6), 1 mM EDTA, 100 mM NaCl and 1% NP-40 and incubated at 37° C. for 30 minutes. Half amount (50 μl) of cell lysate from each well was combined with equal volume of denaturing solution containing 0.5N NaOH and 1.5M NaCl. After 5 minute incubation, 100 μl of neutralization solution (1M Tris-HCl, pH 7.4, 1.5M NaCl) was added into each well. The denatured cell lysates (totally 200 μl) were applied onto Nylon membrane using 96-well dot-blot manifold (Biorad). HBV DNA in the cell lysates were determined by dot-blot hybridization with alpha-^32P-UTP-labelled riboprobe specific for HBV minus strand DNA.

Take `COc1ccc(S(=O)(=O)N[C@H](C)C(C)C)cc1C(=O)Nc1ccc(F)c(F)c1` [XIV: A=H, B=OMe, C=H, D=H, (R)-N-(3,4-Difluorophenyl)-2-methoxy-5-(N-(3-methylbutan-2-yl)sulfamoyl)benzamide]: the EC50 in the assay on HBV [1] and in the assay on HBV [2] was < 1000 nM in each case.

For `Cc1ccc(S(=O)(=O)N[C@H](C)C(C)C)cc1C(=O)Nc1ccc(F)c(F)c1` [XIV: A=H, B=Me, C=H, D=H, (R)-N-(3,4-Difluorophenyl)-2-methyl-5-(N-(3-methylbutan-2-yl)sulfamoyl)benzamide], the EC50 in the assay on HBV [1] and in the assay on HBV [2] was < 1000 nM each time.

In the case of `CC(C)[C@@H](C)NS(=O)(=O)c1ccc(Cl)c(C(=O)Nc2ccc(F)c(F)c2)c1` [XIV: A=H, B=Cl, C=H, D=H, (R)-2-chloro-N-(3,4-Difluorophenyl)-5-(N-(3-methylbutan-2-yl)sulfamoyl)benzamide], in the assay with HBV [2], the EC50 is < 1000 nM.

For the compound `CC(C)[C@@H](C)NS(=O)(=O)c1cc(C(=O)Nc2ccc(F)c(F)c2)c(F)cc1F` [XIV: A=H, B=F, C=H, D=F, (R)-N-(3,4-Difluorophenyl)-2,4-difluoro-5-(N-(3-methylbutan-2-yl)sulfamoyl)benzamide], the concentration giving a half-maximal response (EC50) in the assay on HBV [2] was in the range of 1000 to 5000 nM.

As usually defined, the EC50 is the midpoint of the concentration-response curve. High values mean a less potent agent, low ones a more potent agent.
